According to patent US11491165B2 (Kinoxis Therapeutics Pty Ltd, priority 2016, dated 2022):

Columns and labels:
[1] = molecular target: T1, oxytocin receptor (OXTR), hOTR (Homo sapiens, UniProt P30559); assay: Competition radioligand binding, [3H]-oxytocin, OTR-expressing HEK293 membranes; conditions: [3H]-oxytocin 10 nM, 90 min 4 °C
T1 construct: expressed in transfected cells
T1 sequence (P30559 1-389): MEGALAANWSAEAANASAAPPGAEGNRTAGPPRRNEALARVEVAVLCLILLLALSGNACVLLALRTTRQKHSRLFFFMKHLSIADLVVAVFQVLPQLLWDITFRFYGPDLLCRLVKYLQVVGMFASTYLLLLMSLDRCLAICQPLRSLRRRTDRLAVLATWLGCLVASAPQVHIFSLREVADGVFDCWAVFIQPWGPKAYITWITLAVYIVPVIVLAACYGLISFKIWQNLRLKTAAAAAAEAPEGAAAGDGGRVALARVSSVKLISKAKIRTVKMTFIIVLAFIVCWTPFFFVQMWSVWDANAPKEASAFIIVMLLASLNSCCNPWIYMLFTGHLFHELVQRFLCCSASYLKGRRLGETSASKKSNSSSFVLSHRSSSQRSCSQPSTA
Experimental: (§1) Human embryonic kidney cells (HEK-293) transfected to stably express untagged hOTR and V1aR using the Flp-In™ T-REx™ system (Life Technologies, Carlsbad, Calif. USA) were established as reported in Jorgensen et al., 2016 (the entire disclosure of which is hereby incorporated by reference). Cells were subsequently maintained in 10% DMEM containing hygromycin (80 μg/ml), penicillin (100 U/ml), streptomycin (0.1 mg/ml) and blasticidine S hydrochloride (15 μg/ml).
(§2) To induce receptor expression, cells were incubated with tetracycline (2 μg/mL) for 48 h. PBS with 5 mM EDTA (pH 7.4) was used to detach OTR and V1aR-expressing HEK293 cells from culture flasks. Harvested cells were centrifuged at 1200 g for 5 min and were resuspended in homogenization buffer (50 mM HEPES, 5 mM EDTA, 5 mM MgCl2; pH 7.4) prior to homogenization using an Ultra-Turrax homogeniser (IKA, Wilmington, N.C., USA). Homogenates were centrifuged three times for 30 min at 48.000 g, 4° C. for 30 min and membrane pellets resuspended in 50 mM Tris HCl, 5 mM MgCl2 (pH 7.4). A bicinchoninic acid assay was used according to the manufacturer's protocol (Bio-Rad, Hercules. Calif., USA) to measure final protein concentration. Membranes were stored at −80° C. until use in competition radioligand binding studies.
(§3) Reactions were incubated for 90 min at 4° C. to reach equilibrium, and terminated by rapid filtration over glass fibre filters (Whatman GF/A […]; Millipore, Darmstadt, Germany), and washing with ice-cold reaction buffer. Filters were dried, then incubated with Microscint 0 (Perkin Elmer) for 30 min before radioactivity was detected with a Microbeta2 2450 microplate-reader (Perkin Elmer). […] Specific binding in the presence of compounds was expressed as a percentage of specific binding in the presence of vehicle control. A sum-of-squares F-test was used to compare the goodness of fit of one-site, two-site and sigmoidal with variable hill slope binding models, and to calculate Ki's using Graphpad Prism (Graphpad Software, La Jolla, Calif., USA).

[2] = molecular target: T2, vasopressin 1a receptor (V1aR) (Homo sapiens, UniProt P37288); assay: Competition radioligand binding, [3H]-vasopressin, V1aR-expressing HEK293 membranes; conditions: [3H]-vasopressin 2 nM, 90 min 4 °C
T2 construct: expressed in transfected cells
T2 sequence (P37288 whole entry): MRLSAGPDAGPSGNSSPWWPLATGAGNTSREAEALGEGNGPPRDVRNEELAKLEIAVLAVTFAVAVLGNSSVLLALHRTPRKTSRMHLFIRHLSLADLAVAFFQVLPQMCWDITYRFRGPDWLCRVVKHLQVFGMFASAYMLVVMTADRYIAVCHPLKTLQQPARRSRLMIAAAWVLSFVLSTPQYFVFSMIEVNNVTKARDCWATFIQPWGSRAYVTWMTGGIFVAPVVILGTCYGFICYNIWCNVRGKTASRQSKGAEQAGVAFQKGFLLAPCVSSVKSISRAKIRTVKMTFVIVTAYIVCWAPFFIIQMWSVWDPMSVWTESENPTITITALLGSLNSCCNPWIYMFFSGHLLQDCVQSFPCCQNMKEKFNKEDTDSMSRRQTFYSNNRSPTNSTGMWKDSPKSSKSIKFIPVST
Experimental: as §1, §2, §3

[3] = molecular target: T1, oxytocin receptor (OXTR), hOTR; assay: IP1 accumulation assay, OTR-expressing HEK-293 cells (agonist and antagonist assessment); format: cell-based; conditions: for EC50 / EC50 (OXTR agonist potency, mean ± s.d.): agonist assessment; for EC50: IP1, 1 h; for IC50: antagonist assessment vs OT 30 nM (~EC70); for IC50 / EC50 (OXTR agonist potency, mean ± s.d.): IP1; for OV function: ratio of OXTR functional potency to V1aR functional potency, 'OT only' = function at OXTR only; for Emax: HEK293, read-out: OXTR Emax (% OXT)
Experimental: as §1
(§4) OTR or V1aR-expressing HEK-293 cells were seeded onto poly-L-lysine (100 μg/ml)-coated 384-well plates at a density of 8.75×10^3 cells per well. Cells were incubated in tetracycline (2 μg/mL) for 48 h to induce receptor expression. Intracellular IP1 levels induced by activation of the Gq protein coupled to the OTR and V1aR was indexed using the HTRF IP-One kit (CisBio International, Bedford, Mass., USA), according to manufacturer's protocol. For agonist assessment, cells were incubated with logarithmically-spaced concentrations of compounds (1 nM-100 μM) for 1 h prior to the addition of Ab-Cryptate and IP1-d2 for 1 h. The contents of each well were transferred to a white-walled proxy plate (Perkin Elmer) and fluorescence read using a Pherastar Microplate reader (BMG Labtech, Cary, N.C., USA). For antagonist assessment, cells were incubated an ˜EC70 concentration of OT (30 nM) or AVP (25 nM) mixed with compounds (1 nM-100 μM) or vehicle control for 1 h. IP1 levels in the presence of compounds and OT or AVP were expressed as a percentage of levels seen with OT or AVP in the presence of vehicle control. Concentration response curves for OT and AVP were determined after 5 min incubation in drug or vehicle, and the data fitted using GraphPad PRISM to a 4-parameter logistic equation of the form y=Min+(Max−Min)/(1+10^((logEC50−X)*n)) where X is drug concentration and n is the H-ill slope. Data represent the mean±s.d. of at least 3 independent experiments, each in duplicate.

[4] = molecular target: T2, vasopressin 1a receptor (V1aR); assay: IP1 accumulation assay, V1aR-expressing HEK-293 cells (agonist and antagonist assessment); format: cell-based; conditions: for EC50: agonist assessment, IP1, 1 h; for IC50: antagonist assessment vs AVP 25 nM (~EC70), IP1
Experimental: Cells were subsequently maintained in 10% DMEM containing hygromycin (80 μg/ml), penicillin (100 U/ml), streptomycin (0.1 mg/ml) and blasticidine S hydrochloride (15 μg/ml).
as §4, with “Cells” for “OTR or V1aR-expressing HEK-293 cells were seeded onto poly-L-lysine (100 μg/ml)-coated 384-well plates at a density of 8.75×10^3 cells per well. Cells”, “For antagonist assessment, cells were incubated an ˜EC70 concentration of OT (30 nM) or AVP (25 nM) mixed with compounds (1 nM-100 μM) or vehicle control for 1 h.” left out

| Ki [1] | Ki [2] | EC50 [3] | IC50 [3] | OV function [3] | EC50 [4] | IC50 [4] | melting point | Emax [3] | EC50 (OXTR agonist potency, mean ± s.d.) [3] | Structure (SMILES) |
| --- | --- | --- | --- | --- | --- | --- | --- | --- | --- | --- |
| 176 ± 41 nM | 35 ± 5 nM | > 10000 nM | 0.179 µM | 0.11 | > 10 µM | 1.59 ± 0.486 µM | 207 to 209 °C | – | – | Cn1ncc2c1Nc1ccccc1N(C(=O)c1ccc(OCc3ccccc3)cc1)C2 [BzE, (4-(benzyloxy)phenyl)(1-methyl-4,10-dihydrobenzo[b]pyrazolo[3,4-e][1,4]diazepin-5 (1H)-yl)methanone] |
| > 10000 nM | 3370 ± 740 nM | > 10000 nM | > 10 µM | – | > 10 µM | > 10 µM | 207 to 209 °C | – | – | Cn1ncc2c1Nc1ccccc1N(C(=O)C1CC1)C2 [CA3 (KA), cyclopropyl(1-methyl-4,10-dihydrobenzo[b]pyrazolo[3,4-e][1,4]diazepin-5 (1H)-yl)methanone] |
| 1080 ± 323 nM | 236 ± 75 nM | 481 ± 61 nM | – | <0.04 | > 10 µM | > 10 µM | – | 17% | – | Cn1ncc2c1Nc1ccccc1N(C(=O)C1CCCCC1)C2 [CA6 (KA), cyclohexyl(1-methyl-4,10-dihydrobenzo[b]pyrazolo[3,4-e][1,4]diazepin-5 (1H)-yl)methanone] |
| > 10000 nM | 553 ± 67 nM | 3390 ± 448 nM | – | <0.33 | > 10 µM | > 10 µM | > 300 °C | 10% | – | Cn1ncc2c1Nc1ccccc1N(C(=O)C1CCCC1)C2 [CAS (KA), cyclopentyl(1-methyl-4,10-dihydrobenzo[b]pyrazolo[3,4-e][1,4]diazepin-5 (1H)-yl)methanone] |
| 159 ± 32 nM | 18 ± 1 nM | 91 ± 25 nM | – | 0.06 | > 10 µM | 1.53 ± 0.444 µM | – | 13% | – | Cn1ncc2c1Nc1ccccc1N(C(=O)c1ccc3c(c1)OCO3)C2 [TRGA95, benzo[d][1,3]dioxol-5-yl(1-methyl-4,10-dihydrobenzo[b]pyrazolo[3,4-e][1,4]diazepin-5 (1H)-yl)methanone] |
| 22 ± 8 nM | 1.8 ± 0.6 nM | 41 ± 15 nM | – | 0.02 | > 10 µM | 1.65 ± 0.075 µM | – | 8% | – | CCc1ccc(C(=O)N2Cc3cnn(C)c3Nc3ccccc32)cc1 [TRGA99, (4-ethylphenyl)(1-methyl-4,10-dihydrobenzo[b]pyrazolo[3,4-e][1,4]diazepin-5 (1H)-yl)methanone] |
| 92.6 ± 10 nM | 4.6 ± 1.3 nM | > 10000 nM | 1.76 µM | 8.59 | > 10 µM | 0.205 ± 0.0576 µM | > 300 °C | – | – | Cn1ncc2c1Nc1ccccc1N(C(=O)c1cc(O)cc(O)c1)C2 [WJ0623, (3,5-Dihydroxyphenyl)(1-methyl-4,10-dihydrobenzo[b]pyrazolo[3,4-e][1,4]diazepin-5 (1H)-yl)methanone] |
| > 10000 nM | > 10000 nM | > 10000 nM | > 10 µM | – | > 10 µM | > 10 µM | 210 to 212 °C | – | – | COc1cc(CN2Cc3cnn(C)c3Nc3ccccc32)cc(OC)c1 [WJ0625, 5-(3,5-Dimethoxybenzyl)-1-methyl-1,4,5,10-tetrahydrobenzo[b]pyrazolo[3,4-e][1,4]diazepine] |
| > 10000 nM | > 10000 nM | > 10000 nM | > 10 µM | – | > 10 µM | > 10 µM | 236 to 238 °C | – | – | Cn1ncc2c1Nc1ccccc1N(Cc1cc(O)cc(O)c1)C2 [WJ0627, 5-((1-Methyl-4,10-dihydrobenzo[b]pyrazolo[3,4-e][1,4]diazepin-5(1H)-yl)methyl)benzene-1,3-diol] |
| > 10000 nM | 44.7 ± 5 nM | 9190 ± 1620 nM | – | <0.92 | > 10 µM | > 10 µM | – | 8% | – | Cc1cc(C(=O)N2Cc3cnn(C)c3Nc3ccccc32)ccc1CN [WJ0761] |
| 553 ± 155 nM | – | 407 ± 102 nM | – | – | > 10 µM | > 10 µM | 254 to 256 °C | 16.8% | 420 ± 37 nM | Cc1cccc(C(=O)N2Cc3cnn(C)c3Nc3ccccc32)c1 [WJ0823, (1-Methyl-4,10-dihydrobenzo[b]pyrazolo[3,4-e][1,4]diazepin-5 (1H)-yl)(m-tolyl)methanone] |
| 1620 ± 243 nM | 455 ± 112 nM | 438 ± 127 nM | – | – | > 10 µM | > 10 µM | – | 12.9% | 321.8 nM | Cn1ncc2c1Nc1ccccc1N(C(=O)c1ccc(Cl)c(Cl)c1)C2 [WJ0824, (3,4-Dichlorophenyl)(1-methyl-4,10-dihydrobenzo[b]pyrazolo[3,4-e][1,4]diazepin-5 (1H)-yl)methanone] |

| Structure (SMILES) | Ki [1] | Ki [2] | EC50 [3] | IC50 [3] | OV function [3] | EC50 [4] | IC50 [4] | melting point | Emax [3] | EC50 (OXTR agonist potency, mean ± s.d.) [3] |
| --- | --- | --- | --- | --- | --- | --- | --- | --- | --- | --- |
| Cn1ncc2c1Nc1ccccc1N(C(=O)C1C(C)(C)C1(C)C)C2 [TRGA111, (1-methyl-4,10-dihydrobenzo[b]pyrazolo[3,4-e][1,4]diazepin-5 (1H)-yl)(2,2,3,3-tetramethylcyclopropyl)methanone] | > 10000 nM | > 10000 nM | > 10000 nM | > 10 µM | – | > 10 µM | > 10 µM | – | – | – |
